In patent US20260250250A1, “3-(SULPHONYL OR SULFONIMIDOYL)PROP-2-EN-1-YL]-2-OXO-1,2-DIHYDROPYRIDINE-3-CARBOXAMIDE DERIVATIVES” (Flinder Therapeutics B.V., priority 2022, published 2026) one finds IC50 data, which are given here for 21 compounds.

One assay has as its system NF-κB signaling pathway. In words: Cell-based dual luciferase NF-κB reporter assay (HEK293 cells, TNF stimulated). As to conditions: Homo sapiens, HEK293. In outline:
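HEK293 cells transfected with Firefly luciferase and NF-κB-response-element NanoLuc plasmids; compounds at 100–0.005 µM in 1% DMSO. Cells stimulated with 2.5 ng/mL TNF 30 min after compound addition. Firefly and NanoLuc activities read after 6 h by Nano-Glo dual-luciferase detection.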

Assay [1] addresses T1, human E3 ubiquitin-protein ligase RNF31 (HOIP) (Homo sapiens, UniProt Q96EP0).
T1 sequence (Q96EP0 695-1072 limits assumed): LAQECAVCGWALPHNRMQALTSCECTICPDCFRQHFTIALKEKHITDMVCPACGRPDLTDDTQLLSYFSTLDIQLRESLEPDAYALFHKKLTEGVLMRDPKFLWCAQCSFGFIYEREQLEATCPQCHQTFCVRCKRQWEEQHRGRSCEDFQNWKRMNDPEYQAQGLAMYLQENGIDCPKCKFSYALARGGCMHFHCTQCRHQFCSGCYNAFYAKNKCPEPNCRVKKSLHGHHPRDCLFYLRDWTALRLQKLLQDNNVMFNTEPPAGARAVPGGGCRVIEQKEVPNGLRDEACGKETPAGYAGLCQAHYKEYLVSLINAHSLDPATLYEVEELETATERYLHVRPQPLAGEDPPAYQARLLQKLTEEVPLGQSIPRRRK
In words: Cell-free HTRF-based HOIP inhibition assay. It is filed as biochemical. In outline: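 Recombinant human HOIP fragment (E. coli) preincubated with compounds (100-0.005 μM, 1% DMSO) and E1 for 1 h at 25° C. E2 and substrates then added; reaction 2.5 h at 25° C. HTRF read-out, excitation 337 nm, emissions 665/620 nm.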
(In general: TR-FRET usually uses a lanthanide donor and a delayed reading to cut background.)

Assay [2] has as its system bladder carcinoma RT4 cell line. Kind of assay: TNF-α-induced cytotoxicity assay (CellTiter-Glo viability). It is filed as cell-based. As to conditions: Homo sapiens, RT-4, 72 h. In outline: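 RT4 bladder carcinoma cells, 1000 per well, stimulated with 1.25 ng/mL TNFα together with compound for 72 h at 37° C., 5% CO2. Viability read by CellTiter-Glo luminescence, proportional to cellular ATP, as a measure of HOIP-dependent cytotoxicity.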
For orientation: ATP-based viability assays read luminescence as a measure of living cells.

Structures can show the parent of a compound that is named as a salt. Where only a bound is given, the exact number is not on record here.

In general, IC50 refers to the concentration that inhibits the measured activity by half. Low readings indicate greater potency in that assay, high ones weaker potency in that assay. Consider `O=C(NC/C=C/S(=O)(=O)c1ccc(Cl)cc1)c1cc2c([nH]c1=O)CCN(C(=O)OCCF)C2` [Example 93, 2-fluoroethyl 3-{[(2E)-3-(4-chlorobenzenesulfonyl)prop-2-en-1-yl]carbamoyl}-2-oxo-1,2,5,6,7,8-hexahydro-1,6-naphthyridine-6-carboxylate], for which the IC50 is no more than 1000 nM in the assay on NF-κB signaling pathway, no more than 100 nM in assay [1] and no more than 1000 nM in assay [2].
On to `O=C(NC/C=C/S(=O)(=O)c1ccccc1)c1cc2c([nH]c1=O)CCNC2` [Example 66, N-[(2E)-3-(benzenesulfonyl)prop-2-en-1-yl]-2-oxo-1,2,5,6,7,8-hexahydro-1,6-naphthyridine-3-carboxamide hydrochloride], for which the IC50 (in the assay with NF-κB signaling pathway; in assay [1]; in assay [2]) was no more than 10000 nM each time.
With `COc1ccc(S(=N)(=O)/C=C/CNC(=O)c2cc3c([nH]c2=O)CCCC3)cc1Cl` (stereo not drawn) [Example 133, N-[(2E)-3-[(3-chloro-4-methoxyphenyl)(imino)oxo-λ^6-sulfanyl]prop-2-en-1-yl]-2-oxo-1,2,5,6,7,8-hexahydroquinoline-3-carboxamide], the IC50 with NF-κB signaling pathway is no more than 1000 nM; in assay [1], no more than 100 nM; in assay [2], no more than 1000 nM.
For the compound `COc1ccc(S(=N)(=O)/C=C/CNC(=O)c2cc3c([nH]c2=O)CCN(C(=O)OCC2CC2)C3)cc1F` (stereo not drawn) [Example 98, cyclopropylmethyl 3-{[(2E)-3-[(3-fluoro-4-methoxyphenyl)(imino)oxo-λ^6-sulfanyl]prop-2-en-1-yl]carbamoyl}-2-oxo-1,2,5,6,7,8-hexahydro-1,6-naphthyridine-6-carboxylate], the IC50 in the assay on NF-κB signaling pathway was no more than 1000 nM; in assay [1] it was no more than 100 nM; in assay [2], no more than 10000 nM.
As to `CC(=O)N1CCC(OC(=O)N2CCc3[nH]c(=O)c(C(=O)NC/C=C/S(=O)(=O)c4ccc(Cl)cc4)cc3C2)CC1` [Example 92, 1-acetylpiperidin-4-vi 3-{[(2E)-3-(4-chlorobenzenesulfonyl)prop-2-en-1-yl]carbamoyl}-2-oxo-1,2,5,6,7,8-hexahydro-1,6-naphthyridine-6-carboxylate], the 50% inhibitory concentration (IC50) in the assay on NF-κB signaling pathway was no more than 10000 nM; in assay [1], no more than 100 nM; in assay [2] it was no more than 100000 nM.
With `O=C(NC/C=C/S(=O)(=O)c1ccc(F)cc1)c1cc2c([nH]c1=O)CCCCC2` [Example 35, N-[(2E)-3-(4-fluorobenzenesulfonyl)prop-2-en-1-yl]-2-oxo-1H,2H,5H,6H,7H,8H,9H-cyclohepta[b]pyridine-3-carboxamide], the IC50 was no more than 1000 nM with NF-κB signaling pathway, no more than 1000 nM in assay [1] and no more than 10000 nM in assay [2].
As to `O=C(NC/C=C/S(=O)(=O)c1ccccc1)c1cc2c([nH]c1=O)CCN(C(=O)C1CCOC1)C2` (stereo not drawn) [Example 113, N-[(2E)-3-(benzenesulfonyl)prop-2-en-1-yl]-2-oxo-6-(oxolane-3-carbonyl)-1,2,5,6,7,8-hexahydro-1,6-naphthyridine-3-carboxamide], the IC50 with NF-κB signaling pathway is no more than 100000 nM; in assay [1] it was no more than 1000 nM; in assay [2], no more than 100000 nM.
On to `COc1ccc(S(=N)(=O)/C=C/CNC(=O)c2cc3c([nH]c2=O)CCCC3)c(C)c1` (stereo not drawn) [Example 139, N-[(2E)-3-[imino(4-methoxy-2-methylphenyl)oxo-λ^6-sulfanyl]prop-2-en-1-yl]-2-oxo-1,2,5,6,7,8-hexahydroquinoline-3-carboxamide], for which the IC50 (with NF-κB signaling pathway; in assay [1]; in assay [2]) was no more than 1000 nM throughout.
With `O=C(NC/C=C/S(=O)(=O)c1ccccc1)c1cc2c([nH]c1=O)CCN(Cc1ccccc1)C2` [Example 8, N-[(2E)-3-(benzenesulfonyl)prop-2-en-1-yl]-6-benzyl-2-oxo-1,2,5,6,7,8-hexahydro-1,6-naphthyridine-3-carboxamide], the IC50 (in the assay with NF-κB signaling pathway; in assay [1]; in assay [2]) was no more than 1000 nM in each case.
Take `O=C(NC/C=C/S(=O)(=O)c1ccc(Cl)cn1)c1cc2c([nH]c1=O)CCN(C(=O)OCC1CC1)C2` [Example 95, cyclopropylmethyl 3-{[(2E)-3-[(5-chloropyridin-2-yl)sulfonyl]prop-2-en-1-yl]carbamoyl}-2-oxo-1,2,5,6,7,8-hexahydro-1,6-naphthyridine-6-carboxylate]: the IC50 with NF-κB signaling pathway is no more than 1000 nM; in assay [1] it was no more than 100 nM; in assay [2], no more than 10000 nM.
Taken in the same sequence, the figures for `N=S(=O)(/C=C/CNC(=O)c1cc2c([nH]c1=O)CCCC2)c1ccc(Cl)cc1` (stereo not drawn) [Example 131, N-[(2E)-3-[(4-chlorophenyl)(imino)oxo-λ^6-sulfanyl]prop-2-en-1-yl]-2-oxo-1,2,5,6,7,8-hexahydroquinoline-3-carboxamide] were no more than 1000 nM, no more than 100 nM and no more than 1000 nM.
Taken in the same sequence, the figures for `N=S(=O)(/C=C/CNC(=O)c1cc2c([nH]c1=O)CCCC2)c1ccc(Oc2ccccc2)cc1` (stereo not drawn) [Example 140, N-[(2E)-3-[imino(oxo)(4-phenoxyphenyl)-λ^6-sulfanyl]prop-2-en-1-yl]-2-oxo-1,2,5,6,7,8-hexahydroquinoline-3-carboxamide] were no more than 1000 nM, no more than 1000 nM and no more than 1000 nM.
The corresponding values for `COc1ccc(S(=N)(=O)/C=C/CNC(=O)c2cc3ccccc3[nH]c2=O)cc1F` (stereo not drawn) [Example 143, N-[(2E)-3-[(3-fluoro-4-methoxyphenyl)(imino)oxo-λ^6-sulfanyl]prop-2-en-1-yl]-2-oxo-1,2-dihydroquinoline-3-carboxamide] are no more than 1000 nM, no more than 100 nM and no more than 1000 nM.
With `CC(C)(C)OC(=O)N1CCc2[nH]c(=O)c(C(=O)NC/C=C/S(=O)(=O)c3ccc(Cl)cc3)cc2C1` [Example 27, tert-butyl 3-{[(2E)-3-(4-chlorobenzenesulfonyl)prop-2-en-1-yl]carbamoyl}-2-oxo-1,2,5,6,7,8-hexahydro-1,6-naphthyridine-6-carboxylate], the IC50 with NF-κB signaling pathway was no more than 1000 nM; in assay [1], no more than 100 nM; in assay [2], no more than 1000 nM.
Regarding `O=C(NC/C=C/S(=O)(=O)c1ccc(Cl)cc1)c1cc2c([nH]c1=O)CCN(C(=O)OC1COC1)C2` [Example 87, oxetan-3-vi 3-{[(2E)-3-(4-chlorobenzenesulfonyl)prop-2-en-1-yl]carbamoyl}-2-oxo-1,2,5,6,7,8-hexahydro-1,6-naphthyridine-6-carboxylate], the figures for the IC50 (with NF-κB signaling pathway; in assay [1]; in assay [2]) were no more than 10000 nM, no more than 100 nM and no more than 100000 nM, respectively.
With `CN(C)c1ccc(S(=O)(=O)/C=C/CNC(=O)c2cc3c([nH]c2=O)CCCC3)cc1` [Example 54, N-[(2E)-3-[4-(dimethylamino)benzenesulfonyl]prop-2-en-1-yl]-2-oxo-1,2,5,6,7,8-hexahydroquinoline-3-carboxamide], the half-inhibitory concentration (IC50) (with NF-κB signaling pathway; in assay [1]; in assay [2]) was no more than 1000 nM each time.
With `CC1(C)CC1COC(=O)N1CCc2[nH]c(=O)c(C(=O)NC/C=C/S(=O)(=O)c3ccc(Cl)cc3)cc2C1` (stereo not drawn) [Example 85, (2,2-dimethylcyclopropyl)methyl 3-{[(2E)-3-(4-chlorobenzenesulfonyl)prop-2-en-1-yl]carbamoyl}-2-oxo-1,2,5,6,7,8-hexahydro-1,6-naphthyridine-6-carboxylate], the IC50 in the assay on NF-κB signaling pathway was no more than 1000 nM; in assay [1] it was no more than 100 nM; in assay [2], no more than 1000 nM.
`O=C(NC/C=C/S(=O)(=O)c1ccccc1)c1cc2c([nH]c1=O)CCN(C(=O)OCC(F)F)C2` [Example 77, 2,2-Difluoroethyl 3-{[(2E)-3-(benzenesulfonyl)prop-2-en-1-yl]carbamoyl}-2-oxo-1,2,5,6,7,8-hexahydro-1,6-naphthyridine-6-carboxylate]: the figures for the IC50 (with NF-κB signaling pathway; in assay [1]; in assay [2]) were no more than 1000 nM, no more than 100 nM and no more than 10000 nM, respectively.
The corresponding values for `COc1ccc(S(=N)(=O)/C=C/CNC(=O)c2cc3c([nH]c2=O)CCN(C(=O)OCC(F)F)C3)cc1F` (stereo not drawn) [Example 178, 2,2-difluoroethyl 3-{[(2E)-3-[(3-fluoro-4-methoxyphenyl)(imino)oxo-λ^6-sulfanyl]prop-2-en-1-yl]carbamoyl}-2-oxo-1,2,5,6,7,8-hexahydro-1,6-naphthyridine-6-carboxylate] are no more than 10000 nM, no more than 100 nM and no more than 10000 nM.
With `O=C(NC/C=C/S(=O)(=O)c1ccccc1)c1cc2c([nH]c1=O)CCN(C(=O)OC1CCCC1)C2` [Example 84, cyclopentyl 3-{[(2E)-3-(benzenesulfonyl)prop-2-en-1-yl]carbamoyl}-2-oxo-1,2,5,6,7,8-hexahydro-1,6-naphthyridine-6-carboxylate], the IC50 in the assay on NF-κB signaling pathway was no more than 1000 nM; in assay [1] it was no more than 100 nM; in assay [2] it was no more than 1000 nM.
In the case of `COc1ccc(S(=O)(=O)/C=C/CNC(=O)c2cc3c([nH]c2=O)CCCC3)cc1OC` [Example 45, N-[(2E)-3-(3,4-dimethoxybenzenesulfonyl)prop-2-en-1-yl]-2-oxo-1,2,5,6,7,8-hexahydroquinoline-3-carboxamide], the 50% inhibitory concentration (IC50) was no more than 1000 nM with NF-κB signaling pathway, no more than 1000 nM in assay [1] and no more than 10000 nM in assay [2].
